In patent US20030167556A1, “Methods and devices for transdermal delivery of anti-aging compounds for treatment and prevention of facial or neck skin aging” (Consumers Choice Systems, Inc., priority 2002, published 2003):

How the values were obtained:
[1] = intraduodenal, rats, with 1% (w/v) saline dispersion of polycarbophil; cited from earlier work
human skin = test: Ultra weak photon emission (UPE) assay of skin after UVA irradiation; assay type: in vivo; details: orbital patch with 0.3% CoQ10 once or twice daily for 7 days, 50 mJ/cm^2 UVA, vs delivery vehicle alone
Text: Oxidative events in human skin in vivo following delivery of CoQ10 via a facial patch or mask of the invention are detected, for example, by means of ultra weak photon emission assay [Sauermann et al., Oxidants & Antioxidants, Methods in Enzymology, L. Packer, ed., Academic Press, 300: 419-428 (1999), incorporated herein by reference]. In the basal state, cells emit low levels of photons. When UVA irradiation is applied there is an excited state with a large increase in the level of photons that decay with time. The level of photons emitted is an indication of the antioxidant status of the skin. If there is an increase in antioxidants, the excitation is less and the level of photons emitted will be reduced. The ultra weak photon emission (UPE) is measured after UVA irradiation in two age groups: (1) aged 18-25 years, (2) aged 60-72 years.

peri-orbital skin = test: Quantitative microtopography of skin casts, depth of deep wrinkles (photoaging); assay type: in vivo, human
Procedure: A significant adverse symptom of photoaging is the presence of deep wrinkles. […] In one exemplary protocol, an orbital patch containing CoQ10 in a delivery vehicle or carrier as described above is applied to one eye of a subject, and a control orbital patch containing a delivery vehicle alone is applied around the other eye. Casts are then prepared for quantitative microtopography [see, e.g., Hoppe, et al., J. Soc. Cosmetic Chemists 36: 105-123 (1985), incorporated herein by reference]. Photographs of the skin before treatment show deep wrinkles, which are characteristic of photoaging, whereas fine wrinkles are associated with chronological aging. Using microtopography to measure a reduction in the depth of wrinkles in aged skin, two important parameters can be calculated from the microtopography. They are: Rt which is the mean peak to valley measurement of a defined unit distance, and Rq which is the integrated area of the peaks and troughs. These measurements indicate the variation of the microtopography from a flat surface. […] In certain examples, treatment with an orbital patch containing 0.3% CoQ10 will results in at least a 25% reduction in the mean peak to valley depth of the skin and at least a 25% reduction in the Rq value, compared to controls.

facial skin = test: Corneocyte surface area (senile xerosis) after facial patch or mask treatment; assay type: in vivo; details: patch or mask containing 0.3% CoQ10, once or twice daily for 7 days, vs delivery vehicle or carrier alone
Text: Although the stratum corneum, the outermost layer of the epidermis, is continuously sloughed off and replaced in healthy individuals, it will display symptoms of aging in the underlying living cells in older subjects. The area of corneocytes, which make up the stratum corneum, is proportional to the time taken for the keratinocyte to differentiate and move from the basal layer to the stratum corneum. In aged skin, the time taken to move through the epidermis increases, and corneocytes become larger. The surface can develop fine lines and become dry and scaly (senile xerosis). As aging progresses, the surface area of corneocytes increases, and thus this value can be measured to determine the effectiveness of an anti-aging treatment (i.e., to decrease the transit time and corneocyte surface area).

[2] = orbital patch containing 0.3% CoQ10, compared to controls

Compound	increase in bioavailability compared to aqueous solution without polymer [1]	levels of UPE compared to control level (human skin)	reduction in the Rq value (peri-orbital skin; [2]) [%]	reduction in the mean peak to valley depth of the skin (Rt) (peri-orbital skin; [2]) [%]	depth of deep wrinkles (peri-orbital skin; patch containing 0.3% CoQ10 once daily, at least 2 hours each day, one week to six months, vs vehicle control)	corneocyte area over time (facial skin)
9-desglycinamide, 8-arginine vasopressin [DGAVP]	3-5 fold					
COC1=C(OC)C(=O)C(C/C=C(\C)CC/C=C(\C)CC/C=C(\C)CC/C=C(\C)CC/C=C(\C)CC/C=C(\C)CC/C=C(\C)CC/C=C(\C)CC/C=C(\C)CCC=C(C)C)=C(C)C1=O [CoQ10, CoEnzyme Q10]		significantly lower levels	≥ 25	≥ 25	significantly reduced	significant decrease
